In patent US20250352458A1, “IMPROVEMENTS IN OR RELATING TO EXTRACTS” (Givaudan SA, priority 2020, published 2025):
“And” between values parts separate entries of the source, which are not always exact repeats. Equal values may be shown once.

Key:
[1] = tested on: P. acnes (ATCC 6919); test: TKC (Time Kill Curve) determination; format: cell-based, Propionibacterium acnes
Protocol: Each strain was plated on appropriate plate and grown in the appropriate conditions. Colonies were resuspended in 5 mL of PBS to obtain a 0.5 McFarland O D (approximately 1.10^8 cfu/ml).After two days, the bacterial concentrations we readjusted in reinforced clostridial broth to obtain a solution at 1.10^6 CFU/ml (5.10^4 CFU/well). […] Bacteria quantification has been repeated at […]. For bacteria quantification a Colony counter IUL instruments, flash and go model was used. A Time Kill Curve (TKC) was performed to determine the effect of the active versus placebo on the growth of Propionibacterium acnes.

[2] = tested on: C. granulosum (ATCC 25564); test: MIC evaluation, optical density and percentage of inhibition; format: cell-based, Cutibacterium granulosum
Description: The minimum inhibitory concentration of the following active ingredients has been assessed: • Mangifera indica extract (in propanediol/water 75/25); • Vehicule (propanediol/water 75/25, expressed as Activolo3-75%); • “Pool Mangiferin” which is the pure molecule mangiferin at the same concentration in the Mangifera indica extract in propanediol/water 75/25. • “Pool Mangifera” with is the mix of the 4 molecules (mangiferin, maclurin-C-glucoside, irifluophenone-C-glucoside, gallotanin) at the same concentration in the Mangifera indica extract in propane-diol/water 75/25. […] After two days, the bacterial concentration was adjusted in reinforced clostridial broth to obtain a solution at 1.106 CFU/ml (5.104 CFU/well). […] Concentrations are expressed in % (m/v). […] The diluted bacterial suspension was added to columns 2 to 12. RCB medium was added to column 1 as negative control. Optical density was determined, which correlates to the bacterial growth.

[3] = tested on: S. aureus (ATCC 33592); test: as above; format: cell-based, Staphylococcus aureus
Description: The minimum inhibitory concentration of the following active ingredients has been assessed: • Mangifera indica extract (in propanediol/water 75/25); • Vehicule (propanediol/water 75/25, expressed as Activolo3-75%); • “Pool Mangiferin” which is the pure molecule mangiferin at the same concentration in the Mangifera indica extract in propanediol/water 75/25. • “Pool Mangifera” with is the mix of the 4 molecules (mangiferin, maclurin-C-glucoside, irifluophenone-C-glucoside, gallotanin) at the same concentration in the Mangifera indica extract in propane-diol/water 75/25. S. aureus: The day before the experiment S. aureus (ATCC 33592) was plated and grown overnight at 37° C. Colonies were resuspended in 5 mL of TSB (Tryptic Soy Broth) to obtain a 0.5 McFarland D O (≈1.10^8 CFU/ml) (launch of culture at D-1). […] Concentrations are expressed in % (m/v). […] The diluted bacterial suspension was added to columns 2 to 12. RCB medium was added to column 1 as negative control. Optical density was determined, which correlates to the bacterial growth.

[4] = 0.39 10^−2 % (m/v), plate col. 12
[5] = 0.78 10^−2 % (m/v), plate col. 11
[6] = 1.56 10^−2 % (m/v), plate col. 10
[7] = 3.1310^−2 % (m/v), plate col. 9
[8] = 6.25 10^−2 % (m/v), plate col. 8
[9] = 12.5 10^−2 % (m/v), plate col. 7
[10] = 25.0 10^−2 % (m/v), plate col. 6

O=c1c2cc(O)c(O)cc2oc2cc(O)c([C@@H]3O[C@H](CO)[C@@H](O)[C@H](O)[C@H]3O)c(O)c12 [pool mangiferin]
Time Kill Curve P. acnes, bacteria quantification ([1]; 0.5%, T0): 6.0 Log10 CFU/ml
Time Kill Curve P. acnes, bacteria quantification ([1]; 0.5%, T + 4 h): 6.2 Log10 CFU/ml
Time Kill Curve P. acnes, bacteria quantification ([1]; 0.5%, T + 8 h): 5.7 Log10 CFU/ml
Time Kill Curve P. acnes, bacteria quantification ([1]; 0.5%, T + 24 h): 6.6 Log10 CFU/ml
Time Kill Curve P. acnes, bacteria quantification ([1]; 0.5%, T + 32 h): 6.7 Log10 CFU/ml
Time Kill Curve P. acnes, bacteria quantification ([1]; 0.5%, T + 48 h): 7.8 Log10 CFU/ml
Time Kill Curve P. acnes, bacteria quantification ([1]; 1%, T0): 6.0 Log10 CFU/ml
Time Kill Curve P. acnes, bacteria quantification ([1]; 1%, T + 4 h): 6.0 Log10 CFU/ml
Time Kill Curve P. acnes, bacteria quantification ([1]; 1%, T + 8 h): 5.8 Log10 CFU/ml
Time Kill Curve P. acnes, bacteria quantification ([1]; 1%, T + 24 h): 6.5 Log10 CFU/ml
Time Kill Curve P. acnes, bacteria quantification ([1]; 1%, T + 32 h): 6.7 Log10 CFU/ml
Time Kill Curve P. acnes, bacteria quantification ([1]; 1%, T + 48 h): 7.8 Log10 CFU/ml
Time Kill Curve P. acnes, bacteria quantification ([1]; 2%, T0): 6.0 Log10 CFU/ml
Time Kill Curve P. acnes, bacteria quantification ([1]; 2%, T + 4 h): 5.7 Log10 CFU/ml
Time Kill Curve P. acnes, bacteria quantification ([1]; 2%, T + 8 h): 5.7 Log10 CFU/ml
Time Kill Curve P. acnes, bacteria quantification ([1]; 2%, T + 24 h): 6.5 Log10 CFU/ml
Time Kill Curve P. acnes, bacteria quantification ([1]; 2%, T + 32 h): 6.7 Log10 CFU/ml
Time Kill Curve P. acnes, bacteria quantification ([1]; 2%, T + 48 h): 7.8 Log10 CFU/ml
Optical density, C. granulosum [2, 4]: 0.546 and 0.539
Percentage of inhibition, C. granulosum [2, 4]: 0.5% and 1.9%
Optical density, C. granulosum ([2]; 0.5% (m/v), plate col. 5): 0.449 and 0.457
Percentage of inhibition, C. granulosum ([2]; 0.5% (m/v), plate col. 5): 19.9% and 18.3%
Optical density, C. granulosum [2, 5]: 0.561
Percentage of inhibition, C. granulosum [2, 5]: 0%
Optical density, C. granulosum ([2]; 1% (m/v), plate col. 4): 0.417 and 0.419
Percentage of inhibition, C. granulosum ([2]; 1% (m/v), plate col. 4): 26.3% and 25.9%
Optical density, C. granulosum [2, 6]: 0.573 and 0.570
Percentage of inhibition, C. granulosum [2, 6]: 0%
Optical density, C. granulosum ([2]; 2% (m/v), plate col. 3): 0.391 and 0.398
Percentage of inhibition, C. granulosum ([2]; 2% (m/v), plate col. 3): 31.5% and 30.1%
Optical density, C. granulosum [2, 7]: 0.592 and 0.558
Percentage of inhibition, C. granulosum [2, 7]: 0%
Optical density, C. granulosum [2, 8]: 0.545
Percentage of inhibition, C. granulosum [2, 8]: 0.7%
Optical density, C. granulosum [2, 9]: 0.505 and 0.520
Percentage of inhibition, C. granulosum [2, 9]: 8.7% and 5.7%
Optical density, C. granulosum [2, 10]: 0.479 and 0.478
Percentage of inhibition, C. granulosum [2, 10]: 13.9% and 14.1%
antibacterial effect against C. granulosum (in words) ([2]; at 2%): slight antibacterial effect
Optical density, S. aureus [3, 4]: 0.387 and 0.392
Percentage of inhibition, S. aureus [3, 4]: 3.0% and 1.6%
Optical density, S. aureus ([3]; 0.5% (m/v), plate col. 5): 0.363 and 0.359
Percentage of inhibition, S. aureus ([3]; 0.5% (m/v), plate col. 5): 9.8% and 11.0%
Optical density, S. aureus [3, 5]: 0.384 and 0.366
Percentage of inhibition, S. aureus [3, 5]: 3.9% and 9.0%
Optical density, S. aureus ([3]; 1% (m/v), plate col. 4): 0.346 and 0.348
Percentage of inhibition, S. aureus ([3]; 1% (m/v), plate col. 4): 14.7% and 14.1%
Optical density, S. aureus [3, 6]: 0.365 and 0.369
Percentage of inhibition, S. aureus [3, 6]: 9.3% and 8.1%
antibacterial effect on S. aureus (in words) ([3]; 2%): slight antibacterial effect
Optical density, S. aureus ([3]; 2% (m/v), plate col. 3): 0.320 and 0.327
Percentage of inhibition, S. aureus ([3]; 2% (m/v), plate col. 3): 22.1% and 20.1%
Optical density, S. aureus [3, 7]: 0.377 and 0.378
Percentage of inhibition, S. aureus [3, 7]: 5.9% and 5.6%
Optical density, S. aureus [3, 8]: 0.370 and 0.364
Percentage of inhibition, S. aureus [3, 8]: 7.9% and 9.6%
Optical density, S. aureus [3, 9]: 0.368 and 0.367
Percentage of inhibition, S. aureus [3, 9]: 8.4% and 8.7%
Optical density, S. aureus [3, 10]: 0.370 and 0.368
Percentage of inhibition, S. aureus [3, 10]: 7.9% and 8.4%
